The test system of test [1] is protein synthesis in Arid1a^fl/fl bladders. Kind of test: In vivo puromycin incorporation assay in Arid1a^fl/fl mice after eEF2K inhibitor treatment. Details: species or system mouse. To be noted: A-484954 10 mg/kg IP daily for 15 days. On the procedure:
Immunofluorescent (IF) staining was performed in the following manner. Antigen retrieval was conducted by preheating in sodium citrate buffer (pH 6.0) for 30 minutes at 95° C. in a pressure cooker. Tissue was blocked in 1% BSA solution for 2 hours or in M.O.M® blocking reagent (Vector Laboratories) for 1 hour at room temperature, followed by blocking in 1% BSA solution for 2 hours. Primary antibodies were applied overnight at 4° C. in a humidified chamber, and secondary antibodies (Alexa Fluor® 594; Alexa Fluor® 488; or Alexa Fluor® 647 (Invitrogen)) were applied for 1 hour at room temperature. All IF slides were mounted using ProLong™ gold mounting media with DAPI (Fisher Scientific, P36935). IF slides were scanned using an Aperio Scanscope FL (Leica Biosystems). The following primary antibodies were used for IF study: anti-Cytokeratin 5 (Biolegend Inc), anti-puromycin (EMD Millipore), anti-p-eEF2K (S366) (Cell Signaling Technology), anti-ARID1A (Sigma), or anti-Cytokeratin 5 (Abcam). Image analysis was done using semiautomated image analysis software (HALO, Indica Labs).
For the in vivo puromycin incorporation assay, mice were injected i.p. with 200 μL of 2.5 mM puromycin (Fisher) and euthanized after 1 hour. For in vitro puromycin incorporation assay, cells were treated with 1 μM puromycin for 30 minutes at 37° C. […]

Test [2] has as its target T1, eEF2K (Mus musculus, UniProt O08796).
T1 construct: from tissue; host or cells: bladder urothelium of Arid1a^fl/fl mice dosed in vivo
T1 sequence (O08796 1-724): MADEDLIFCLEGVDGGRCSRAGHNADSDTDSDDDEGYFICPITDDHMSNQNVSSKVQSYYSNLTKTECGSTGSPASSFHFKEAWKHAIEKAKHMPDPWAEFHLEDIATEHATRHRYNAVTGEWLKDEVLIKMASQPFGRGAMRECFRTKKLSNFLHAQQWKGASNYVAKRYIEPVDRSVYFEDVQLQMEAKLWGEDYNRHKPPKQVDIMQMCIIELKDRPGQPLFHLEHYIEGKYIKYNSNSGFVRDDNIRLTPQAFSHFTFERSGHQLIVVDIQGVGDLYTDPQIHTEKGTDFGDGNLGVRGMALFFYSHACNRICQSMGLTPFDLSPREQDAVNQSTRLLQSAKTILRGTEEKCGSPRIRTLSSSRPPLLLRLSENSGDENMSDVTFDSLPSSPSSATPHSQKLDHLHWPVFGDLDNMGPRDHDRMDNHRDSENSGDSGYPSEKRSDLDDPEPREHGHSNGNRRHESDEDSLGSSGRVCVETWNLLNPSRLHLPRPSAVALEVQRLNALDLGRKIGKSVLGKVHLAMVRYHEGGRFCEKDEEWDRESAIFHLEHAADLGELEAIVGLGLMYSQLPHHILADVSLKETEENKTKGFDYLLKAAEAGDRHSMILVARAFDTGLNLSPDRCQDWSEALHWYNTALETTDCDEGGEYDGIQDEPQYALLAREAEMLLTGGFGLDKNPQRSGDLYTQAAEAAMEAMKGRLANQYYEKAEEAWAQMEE
Kind of test: IHC of phospho-eEF2 (T56) in Arid1a^fl/fl mice after eEF2K inhibitor treatment. To be noted: A-484954 10 mg/kg IP daily for 15 days. Type of test: in vivo. As for the experimental part:
(§1) Bladder samples were collected, fixed in 4% paraformaldehyde (PFA), dehydrated with ethanol, and embedded in paraffin wax. Paraffin blocks were sectioned (5 μm) using a rotary microtome and hematoxylin and eosin (H&E) stained. Immunohistochemistry (IHC) staining was performed after rehydrating the tissue. In brief, antigen retrieval was performed by preheating in sodium citrate buffer (pH 6.0 or pH 9) solution for 7-30 minutes at 95° C.-125° C. in a pressure cooker. Hydrogen peroxidase (Vector Laboratories) treatment was done for 5 minutes to quench endogenous peroxides. Tissue was blocked in 1% BSA for 1 hour. Primary antibodies were applied and incubated at room temperature for 1 hour in a humidified chamber followed by secondary antibody (EnVision™ system HRP-labeled polymer, Dako, K4003). Color development was achieved by applying 3,3′-diaminobenzidine (DAB) solution (Agilent Technology) for 2 to 5 minutes, depending on the primary antibody. The sections were counterstained with hematoxylin (Agilent Technology), washed, and cover-slipped using aqueous-based mounting medium (Agilent Technology). All IHC slides were scanned using Aperio ScanScope AT Turbo (Leica Biosystems). […]

The subject of test [3] is Arid1a^fl/fl mouse urothelium. Put plainly: γH2AX and CC3 staining of Arid1a^fl/fl urothelium, A-484954 pretreatment before 9-day BBN. The note with it: Arid1a^fl/fl mice pretreated with A-484954 before a 9-day course of BBN. The class given is in vivo. As for the experimental part: as §1
The subject of test [4] is eEF2 phosphorylation. Kind of test: Immunoblot of phospho-eEF2 and total eEF2 in Arid1a^fl/fl organoids +/- GSK126. Type of test: cell-based, mouse. On the procedure:
Cell lysates were prepared using RIPA buffer (Fisher) containing phosphatase inhibitor (Sigma) and protease inhibitor cocktail (Sigma). The lysates were incubated on ice for 30 minutes with periodic mixing by vortex and centrifuged at 13,000×g at 4° C. for 10 minutes. The supernatants were subjected to SDS-PAGE and transferred to a PDVF membrane (Bio-Rad). Membranes were blocked with 5% milk for 1 hour at room temperature. Primary antibodies were diluted in 5% milk and incubated overnight at 4° C. Blots were incubated with horse radish peroxidase- (HRP-) conjugated secondary antibodies (goat anti-rabbit IgG (Fisher) or goat anti-mouse IgG (Fisher)) in 5% milk for 1 hour at room temperature. West Pico (Fisher) was used to detect immunoreactive bands on the blot using the ChemiDoc Touch Imaging System (Bio-Rad). […]
(A western blot detects proteins with antibodies after separation by electrophoresis.)

Test [5] deals with T2, EZH2 (Mus musculus, UniProt Q61188).
T2 construct: endogenous in cells; host or cells: Arid1a^fl/fl mouse urothelial organoids
T2 sequence (Q61188 whole entry): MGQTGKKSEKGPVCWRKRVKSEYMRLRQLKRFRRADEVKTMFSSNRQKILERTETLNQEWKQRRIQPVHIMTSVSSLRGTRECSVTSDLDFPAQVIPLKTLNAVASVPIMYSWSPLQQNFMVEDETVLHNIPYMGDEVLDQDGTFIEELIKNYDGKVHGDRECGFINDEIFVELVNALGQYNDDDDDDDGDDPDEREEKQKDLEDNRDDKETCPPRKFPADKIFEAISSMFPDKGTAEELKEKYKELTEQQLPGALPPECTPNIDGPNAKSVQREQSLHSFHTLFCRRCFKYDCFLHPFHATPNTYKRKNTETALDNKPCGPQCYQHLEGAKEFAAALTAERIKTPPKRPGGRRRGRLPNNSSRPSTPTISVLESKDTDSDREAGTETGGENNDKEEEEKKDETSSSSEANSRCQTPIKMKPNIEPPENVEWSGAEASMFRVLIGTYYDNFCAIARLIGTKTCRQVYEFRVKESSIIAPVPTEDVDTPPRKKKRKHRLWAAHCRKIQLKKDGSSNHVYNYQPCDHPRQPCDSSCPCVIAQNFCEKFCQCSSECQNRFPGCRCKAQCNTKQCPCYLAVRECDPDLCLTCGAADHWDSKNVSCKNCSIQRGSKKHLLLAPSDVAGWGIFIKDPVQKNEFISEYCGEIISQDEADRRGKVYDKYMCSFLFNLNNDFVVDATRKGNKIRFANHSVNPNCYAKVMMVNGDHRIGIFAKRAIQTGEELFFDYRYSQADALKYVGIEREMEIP
T2 sequence (Q921E6 whole entry partner): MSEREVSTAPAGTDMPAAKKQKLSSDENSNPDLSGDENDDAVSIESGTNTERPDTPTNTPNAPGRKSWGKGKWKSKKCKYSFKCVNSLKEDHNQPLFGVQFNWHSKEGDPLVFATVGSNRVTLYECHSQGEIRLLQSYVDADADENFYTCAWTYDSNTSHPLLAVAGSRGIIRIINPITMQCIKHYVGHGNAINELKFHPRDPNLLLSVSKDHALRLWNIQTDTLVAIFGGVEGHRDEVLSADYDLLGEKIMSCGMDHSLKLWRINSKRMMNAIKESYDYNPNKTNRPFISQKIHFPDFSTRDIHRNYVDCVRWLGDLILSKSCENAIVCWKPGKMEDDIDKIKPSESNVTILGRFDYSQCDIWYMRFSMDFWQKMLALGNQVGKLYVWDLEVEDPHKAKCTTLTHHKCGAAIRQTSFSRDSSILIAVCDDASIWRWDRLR
T2 sequence (Q80U70 whole entry partner): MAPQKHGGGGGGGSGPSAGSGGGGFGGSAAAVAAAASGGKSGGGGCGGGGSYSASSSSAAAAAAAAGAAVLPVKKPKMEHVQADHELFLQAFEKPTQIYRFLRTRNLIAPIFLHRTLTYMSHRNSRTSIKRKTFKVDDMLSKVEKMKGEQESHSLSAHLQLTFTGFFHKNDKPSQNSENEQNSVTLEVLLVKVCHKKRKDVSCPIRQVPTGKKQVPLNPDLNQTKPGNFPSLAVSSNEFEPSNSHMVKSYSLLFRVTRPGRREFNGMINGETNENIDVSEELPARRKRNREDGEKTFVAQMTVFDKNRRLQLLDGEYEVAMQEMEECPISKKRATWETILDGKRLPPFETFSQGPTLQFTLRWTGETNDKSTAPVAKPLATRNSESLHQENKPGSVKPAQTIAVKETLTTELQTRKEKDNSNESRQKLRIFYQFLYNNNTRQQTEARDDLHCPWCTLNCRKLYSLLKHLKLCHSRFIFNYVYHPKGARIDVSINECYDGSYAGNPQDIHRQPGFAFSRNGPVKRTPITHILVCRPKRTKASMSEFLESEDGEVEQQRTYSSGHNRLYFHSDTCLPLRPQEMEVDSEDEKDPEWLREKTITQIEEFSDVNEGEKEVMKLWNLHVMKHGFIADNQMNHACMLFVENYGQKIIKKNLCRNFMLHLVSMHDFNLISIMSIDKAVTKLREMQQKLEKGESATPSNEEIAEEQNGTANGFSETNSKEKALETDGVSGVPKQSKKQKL
T2 sequence (Q60972 whole entry partner): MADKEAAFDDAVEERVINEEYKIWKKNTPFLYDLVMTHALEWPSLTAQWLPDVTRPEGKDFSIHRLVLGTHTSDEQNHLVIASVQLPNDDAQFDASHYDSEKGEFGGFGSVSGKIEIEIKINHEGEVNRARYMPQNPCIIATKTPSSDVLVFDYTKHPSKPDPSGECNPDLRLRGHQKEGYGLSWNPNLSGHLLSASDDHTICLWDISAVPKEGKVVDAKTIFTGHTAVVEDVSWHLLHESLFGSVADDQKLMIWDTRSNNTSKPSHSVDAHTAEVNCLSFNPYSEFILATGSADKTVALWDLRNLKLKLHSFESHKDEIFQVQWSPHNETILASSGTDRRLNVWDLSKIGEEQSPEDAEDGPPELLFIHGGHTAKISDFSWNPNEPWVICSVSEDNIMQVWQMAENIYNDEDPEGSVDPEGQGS
Kind of test: H3K27me3 on the Rasgrp1 promoter in Arid1a^fl/fl organoids treated with EZH2 inhibitor. Type of test: cell-based. The note with it: Arid1a^fl/fl organoids treated with GSK126. As for the experimental part:
CUT&Tag was performed following the published protocol, with some modifications. Briefly, cells were harvested and prepared into homogenous suspension in PBS, aliquoted with 10% DMSO and slow-frozen to −80° C. in isopropanol freezing chambers. CUT&Tag was performed with native nuclei. Cells were thawed at 37° C. for 1 minute, washed twice with PBS and centrifugation at 600×g for 3 minutes, and resuspended into ice-cold NE1 buffer (20 mM K-HEPES pH 7.9, 10 mM KCl, […], 20% Glycerol, 0.5 mM spermidine, and EDTA-free protease inhibitor). Cells were kept on ice for 10 minutes, centrifuged at 1400×g for 3 minutes using a swinging-bucket rotor, pellets were resuspended in Wash buffer (20 mM Na-HEPES pH 7.5, 150 mM NaCl, 0.5 mM spermidine, and EDTA-free protease inhibitor), nuclei were counted using Vi-CELL© Cell Viability Analyzer (Beckman Coulter) and aliquoted into 0.6 mL low-binding flip-cap tubes for CUT&Tag experiments.
500,000 nuclei were used for each CUT&Tag experiment targeting a histone posttranslational modification, while 200,000 nuclei were used for ARID1A. Bio-Mag®Plus Concanavalin A coated magnetic beads (Bangs Laboratories) were equilibrated with binding buffer (20 mM K-HEPES pH7.9, 10 mM KCl, and 1 mM each CaCl2 and MnCl2). To each sample, 10 μL of activated beads were added and held at room temperature for 5 minutes with occasional gentle mixing. […]

Test [6] concerns Rasgrp1 mRNA. Put plainly: QPCR of Rasgrp1 in Arid1a^fl/fl organoids after GSK126. Type of test: cell-based, mouse. The note with it: Arid1a^fl/fl cells; GSK126 12.5 μM.
For test [7], the system named is RASGRP1 protein. Put plainly: RASGRP1 IF in Arid1a^fl/fl organoids after GSK126. The class given is cell-based, mouse. The note with it: Arid1a^fl/fl cells treated with GSK126. As for the experimental part: Organoids were fixed using 4% PFA for 2 hours at room temperature on a shaker followed by a 30-minute incubation on ice to achieve complete removal of EHS. Intact organoids were collected as a pellet after centrifugation at 1400 rpm for 5 min and washed with ddH2O. The pellet was further washed with 0.2% BSA and organoids were mixed with HistoGel™ (Epredia). The organoid and HistoGel™ suspension was centrifuged at 1400 rpm for 5 minutes and kept on ice for 30 minutes. The solidified HistoGel™ structure was stored at 4° C. until ready for processing and paraffin embedding. Organoid sections ([…]) were deparaffinized in CitriSolv™ (Fisher, 4355121) for 10 minutes and rehydrated using 100% (2×), 90% (2×) and 70% (2×) ethanol for 5 minutes each. Antigen retrieval was performed by preheating in sodium citrate buffer (pH 6.0) solution for 10 minutes at 121° C. in a pressure cooker. Organoid sections were blocked in 1% BSA solution for 1 hour followed by overnight incubation in primary antibody (anti-RASGRP1: Fisher) at 4° C. in a humidified chamber. Secondary antibody (Alexa Fluor® 594: Invitrogen) incubation was performed for 1 hour at room temperature. All slides were mounted using ProLong™ gold mounting media with DAPI (Fisher Scientific, P36935). […]

For `CCn1c(=O)c2cc(C(N)=O)c(N)nc2n(C2CC2)c1=O` [A-484954], the “protein synthesis (puromycin incorporation)” value in test [1] was “restoration of protein synthesis”. Further, in test [2], the “eEF2 phosphorylation (T56)” value is “attenuation of eEF2 phosphorylation”. Further, in test [3], the “DNA damage (γH2AX)” value is recorded as “markedly decreased” and the “apoptosis (CC3)” value was “markedly decreased”.
In the case of `CC[C@H](C)n1cc(C)c2c(C(=O)NCc3c(C)cc(C)[nH]c3=O)cc(-c3ccc(N4CCNCC4)nc3)cc21` [GSK126], in test [4], the eEF2 phosphorylation entry is reported as “decrease in eEF2 phosphorylation”. The “H3K27me3 on the Rasgrp1 promoter” value in test [5] is recorded as “decreased H3K27me3”. In test [6], the “Rasgrp1 mRNA levels” value is recorded as “restored”. For the same compound, the RASGRP1 protein levels result in test [7] was “restored”.

The values above are taken from patent US20240350488A1, “METHODS OF TREATING SWI/SNF DEREGULATED CANCERS” (Fred Hutchinson Cancer Center, priority 2023, published 2024).
